Measurements from patent publication US11400103B2, “Methods of preventing platelet activation” (Vanderbilt University, priority 2015, dated 2022).
Entries after “also recorded” stand apart in the source; their conditions may differ.

Key:
platelet COX1 = experiment: Serum T×B2 in patients with sickle cell disease (GC/MS); format: in vivo, human
Protocol: (§1) GC/NICI/MS quantification of thromboxane B2. Serum T×B2 (sT×B2) was measured as an indicator of inhibition of platelet COX activity from blood drawn into non-citrated vacuum tubes. Serum from patients was prepared by incubating the blood at 37° C. for 45 min and then centrifuged at 3,200×g for 15 min. Serum was separated and stored at −80° C. until analysis. For ex vivo experiment, 50 μl of washed platelets were used. sT×B2 was assayed by stable isotope dilution gas chromatography/mass spectrometry (GC/MS) with selective ion monitoring as described previously (10).

[1] = test system: platelets of patients with SCD; experiment: Platelet dilysyl-MDA crosslinks in patients with sickle cell disease; format: in vivo, human
From the text: Sample collection. Written informed consent was obtained from study participants and human blood was obtained following a protocol approved by the Institutional Review Board of Vanderbilt University. Samples were obtained from three different populations: healthy subjects who had no component of the MetSyn or SCD, patients with MetSyn and patients with SCD. Patients with MetSyn were 35-75 year old and fit the MetSyn criteria in accord with the American Heart Association/National Heart, Lung, and Blood Institute criteria (6). Patients with SCD were 25-50 year old and were homozygous sickle (SS) or compound heterozygote with beta-thalassemia (Sβ-thal) phenotype. […]
In vivo platelet activation: Metabolic Syndrome and Sickle Cell patients. […] Accordingly, the levels of dilysyl-MDA crosslinks in platelets were measured in two conditions in which there is evidence of in vivo platelet activation, metabolic syndrome (MetSyn) (8, 9) and sickle cell disease (SCD) (8, 9), and compared to the levels in platelets from healthy subjects isolated from blood collected in the same conditions. […]
Analysis of Protease-Derived Lysyl-MDA-Lysyl Crosslinks (Dilysyl-MDA Crosslinks) in Washed Platelets by LC/ESI/MS/MS. […] The fractions containing the radioactivity were pooled, concentrated in Oasis HLB cartridge, and then dried under nitrogen to a final volume of 40 μl. […]

[2] = Rate of reactivity of the scavengers with MDA in vitro (HPLC); details: for formation of MDA adduct of the scavenger relative to MDA-lysine adduct: 37° C., 4 h, MDA ratio 1:1, 0.1 M phosphate pH 7.4, HPLC; for lysine-MDA adducts formation: Lysine and MDA incubated at 37° C. for 4 h in presence of scavenger
Protocol: Determination of the rate of reactivity of the scavengers with MDA in vitro. N^α-Acetyllysine with or without SA, 3-MoSA or 4-HoBA was incubated at 37° C. in the presence of MDA (ratio 1:1) in 0.1 M phosphate, pH 7.4. After 4 h, 10 μl aliquots were diluted to 200 μl with solvent A and analyzed by HPLC. Solvent A consisted to 20% methanol/0.2% formic acid and solvent B was 99.8% methanol/0.2% formic acid. The gradient was as follows: 0-1 min 100% A, 1-7 min 100-0% A, 7-14 min […]. Phenomenex Kinetex column at a flow rate of 0.2 ml/min and the absorbance at 280 nm were used.

Human platelets [3] = experiment: Inhibition of formation of LG adducts in platelets; format: cell-based; details: 1 mM compound, 10 μM dazoxiben 30 min, arachidonic acid 2 h
Protocol: Human platelets were pre-incubated with 10 μM dazoxiben, a thromboxane synthase inhibitor, and 1 mM of the specified compound or vehicle (control) for 30 min. After incubation, […] arachidonic acid was added for 2 h, and then the proteins were precipitated and digested to single amino acids by step-digestion with proteases. The daughter ions at m/z 332.1 and 84.1 for the lactam were monitored. Values are means±SD (n=9)*P<0.001 vs. control, +P<0.001 vs. 100 μM concentration.

COX-1 = experiment: T×B2 in washed platelets by GC/MS as a measure of COX activity; format: cell-based, human; details: 5 μM arachidonic acid 2 h; for effect on T×B2 levels: scavenger 1.5 mM; for inhibition at 100 µM: Homo sapiens, Platelet, read-out: inhibition of T×B2 levels
Protocol: (§2) In vitro platelet activation: Blood obtained from healthy volunteers was collected into vacuum tubes containing citrate, from a peripheral vein using a 21-gauge needle, and washed platelets were prepared as previously described (7). The platelets were counted with a Coulter counter and diluted with resuspension buffer to a final concentration of […], and aliquoted in volumes corresponding to 500 μl. The aliquots were preincubated for 40 min at room temperature with vehicle, the thromboxane synthase inhibitor ozagrel (100 μM), aspirin (100 μM) or the MDA scavengers, SA (1.5 mM) or 3-MoSA (1.5 mM). Next, arachidonic acid (5 μM) was added and the platelets were incubated for an additional 2 h at room temperature. The reactions were stopped by adding indomethacin (100 μM) and the aldehyde scavenger pyridoxamine (1 mM) for 30 min at 4° C., to inhibit all residual COX-1 activity and to prevent formation of MDA adducts on proteins during the purification process, respectively. An aliquot (5 μl) of sample was used for protein estimations using a BCA assay.
as §1

RAW264.7 cells = experiment: LG-lysyl adduct formation on histones in RAW264.7 cells; format: cell-based; details: 500 μM scavenger 45 min, 20 μM AA 1 h, COX-2 stimulated cells
Protocol: (A). Scavengers were screened in RAW264.7 cells for the ability to decrease LG adduct formation on histones. Scavengers used were glucosamine (GA), 3-methoxysalicylamine (3-MoSA), pentylpyridoxamine (PPM), and 5-ethylsalicylamine (EtSA). Cells were stimulated to express COX-2, pretreated 45 min. with 500 μM scavenger or vehicle (H2O), and given 20 μM AA for 1 h before lysing and extracting histones. Histone proteins were analyzed by LC/ESI/MS/MS for LG-lysyl lactam adduct, n=2.

human washed platelets [4] = experiment: Dilysyl-MDA crosslinks in arachidonic acid-activated human washed platelets (LC/MS/MS); format: cell-based; details: preincubation 40 min (ozagrel 100 μM, aspirin 100 μM, SA or 3-MoSA 1.5 mM), then 5 μM arachidonic acid 2 h
Protocol: as §2
Analysis of Protease-Derived Lysyl-MDA-Lysyl Crosslinks (Dilysyl-MDA Crosslinks) in Washed Platelets by LC/ESI/MS/MS. Samples (around 3 mg of protein) were digested with proteases as previously described for lysyl-lactam adducts (7). In summary, the samples were subsequently heated at 95° C. and allowed to cool at room temperature, before step digestion with pronase (1 mg) at 37° C. for 24 h. Pronase was inactivated by heating samples at 95° C. for 10 min and then cooled to room temperature. Then, 1 μl of […] aminopeptidase was added for every 1 mg of sample protein and incubated at 37° C. for 24 h. Five nanograms of ^13C6-dilysyl-MDA crosslink standard were added to each platelet sample and dilysyl-MDA crosslinks were purified using Oasis cartridge as described above in the section for the preparation of dilysyl-MDA Crosslink standard. The eluate was dried under nitrogen flow to a volume of 100 μl, diluted up to 1 ml with a 0.1% formic acid aqueous solution, and filtered using a 0.22 µm nylon Spin-x centrifuge tube spun at 6,000 rpm for 5 min. Samples were purified by HPLC through the Thermo Scientific Aquasil C18 column. The fractions containing the radioactivity were pooled, concentrated in Oasis HLB cartridge, and then dried under nitrogen to a final volume of 40 μl.
Pooled HPLC fractions concentrated using Oasis were analyzed by LC/MS/MS using an YMC OD-AQ column. […] The gradient was as follows: 0-5 min 100-0% A, 5-7 min 0% A, 7-9 min 0-100% A, 9-15 min 100% A, with a flow rate of 0.2 ml/min. The mass spectrometer was operated in the positive ion mode and the electrospray needle was maintained at 4000 V. Nitrogen was used for both the sheath and auxiliary gas at pressures of 30 and 5 arbitrary units, respectively. […] These settings were used during all experiments, including the validation procedure.

human washed platelets [5] = experiment: LC/MS/MS quantification of scavenger-MDA adducts from washed platelets; format: cell-based; details: 1.5 mM scavenger 40 min, then 5 μM arachidonic acid 2 h
Protocol: LC/MS/MS quantification of scavengers-MDA adducts from washed platelet. Washed platelets were activated as described above in the section “ex vivo activation”. The scavenger-MDA adducts were extracted three times with 500 μl of ethyl acetate from 50 μl of the reaction mixture, as described above. The extract was dried down, re-suspended in 100 μl of ACN-water (1:1, v/v), vortexed, and filtered through a 0.22-um spin X column. The reactions were analyzed by LC/MS/MS using the column and gradient as described above. The mass spectrometer was operated in the positive ion mode and the spray voltage was maintained at 5000 V. Nitrogen was used for the sheath gas and auxiliary gas at pressures of 30 and 5 arbitrary units, respectively. The optimized skimmer offset was set at 10, capillary temperature was 300° C. and the tube lens voltage for both compounds was set to 49. Selected reaction monitoring of specific transition ions for the precursor ions at m/z 178→106 (SA-MDA adduct) or m/z 208→136 (3-MoSA-MDA adduct) at −15 eV were used.

Human platelets [6] = details: previously shown (ref 4); cited from earlier work

Compound: O=C(c1ccccc1)c1ccc2n1CCC2C(=O)O (stereo not shown) [ketorolac]
- levels of serum T×B2 (platelet COX1; SCD patients during ketorolac treatment (from 219.7±183.1 ng/mL)): 68.9 ± 127.7 ng/mL
- reduction in serum T×B2 (platelet COX1; SCD patients, therapeutic use): 69%
- levels of platelet dilysyl-MDA crosslinks ([1]; SCD patients treated with ketorolac during admission for vaso-occlusive crisis): 3.15±1.18 ng/mg of protein
- reduction of platelet dilysyl-MDA crosslinks ([1]; therapeutic use in SCD patients): reduction of dilysyl-MDA crosslinks to the level found in normal platelets

Compound: CC(=O)O.COc1cccc(CN)c1O [3-MoSA, 3-methoxysalicylamine acetate]
- formation of MDA adduct of the scavenger relative to MDA-lysine adduct [2]: 15.1 fold
- lysine-MDA adducts formation [2]: inhibited
- scavenging of LG adducts in the platelet (Human platelets [3]): active
- effect on T×B2 levels (COX-1): neither SA nor 3-MoSA significantly affected T×B2 levels
- effect on LG adducts of histones (nucleus) (RAW264.7 cells): inactive
- levels of dilysyl-MDA crosslinks after platelet activation (human washed platelets [4]; acetate): decreased levels of dilysysl-MDA crosslinks to baseline levels; also recorded: prevent formation of MDA adducts of platelet proteins
- formation of scavenger-MDA adducts in activated platelets (human washed platelets [5]): concomitant appearance of the equivalent scavenger-MDA adduct

Compound: CC(=O)Oc1ccccc1C(=O)O [aspirin, acetylsalicylic acid, reference compound]
- inhibition at 100 µM (COX-1): 96%
- levels of dilysyl-MDA crosslinks after platelet activation (human washed platelets [4]): reduced levels of the dilysysl-MDA crosslink to baseline levels; also recorded: reduce the dilysyl-MDA crosslinks to the levels in non-activated platelets

Compound: pentylpyridoxamine [reference compound]
- scavenging of LG adducts in the platelet (Human platelets [3]): effective scavenger
- effect on LG adducts of histones (nucleus) (RAW264.7 cells): only partially effective

Compound: CC(=O)O.NCc1ccccc1O [SA, Salicylamine acetate]
- formation of MDA adduct of the scavenger relative to MDA-lysine adduct [2]: 9.2 fold
- lysine-MDA adducts formation [2]: inhibited
- effect on T×B2 levels (COX-1): neither SA nor 3-MoSA significantly affected T×B2 levels
- levels of dilysyl-MDA crosslinks after platelet activation (human washed platelets [4]; acetate): decreased levels of dilysysl-MDA crosslinks to baseline levels; also recorded: prevent formation of MDA adducts of platelet proteins
- formation of levuglandinyl adducts of platelet proteins (Human platelets [6]): prevent formation of levuglandinyl adducts of platelet proteins
- formation of scavenger-MDA adducts in activated platelets (human washed platelets [5]): concomitant appearance of the equivalent scavenger-MDA adduct

Compound: CCc1ccc(O)c(CN)c1 [EtSA, 5-ethylsalicylamine]
- effect on LG adducts of histones (nucleus) (RAW264.7 cells): blocks LG-lysyl adduct formation on histones
- effect on LG adducts of histones (nucleus) (RAW264.7 cells; listed as 5-ethylsalicylamine): effective scavenger
- levels of dilysyl-MDA crosslinks after platelet activation (human washed platelets [4]): as effective as scavengers as was SA; also recorded: prevent formation of MDA adducts of platelet proteins

Compound: NCc1ccc(O)cc1 [4-HoBA, 4-hydroxybenzylamine, reference compound]
- formation of MDA adduct of the scavenger relative to MDA-lysine adduct [2]: 0.6 fold

Compound: O=C(O)/C=C/c1ccc(Cn2ccnc2)cc1 [ozagrel, reference compound]
- inhibition at 100 µM (COX-1): 96%
- levels of dilysyl-MDA crosslinks after platelet activation (human washed platelets [4]): reduced levels of the dilysysl-MDA crosslink to baseline levels; also recorded: reduce the dilysyl-MDA crosslinks to the levels in non-activated platelets

Compound: Cc1ccc(O)c(CN)c1 [MeSA, 5-methylsalicylamine]
- levels of dilysyl-MDA crosslinks after platelet activation (human washed platelets [4]): as effective as scavengers as was SA; also recorded: prevent formation of MDA adducts of platelet proteins
